# Measurements: patent publication US6455593B1, “Method of dynamic retardation of cell cycle kinetics to potentiate cell damage” (priority 1995, dated 2002)
# Read-outs that look alike come from different tables or passages of the source.
# Legend:
# Daudi cells = experiment: MIS MTT growth inhibition assay; format: cell-based, human
# From the text: (§1) A dye, 3-[4,5-dimethylthiazol-2-yl]-2,5-diphenyl-tetrazolium bromide (MTT), was used as a chromogenic indicator of the metabolically active cell mass. Viable cells metabolize the dye and accumulate a reduced formazan product (blue color) which is solubilized for colorimetry. Mossman T, J. Immunol. Methods 5:55-63 (1983); Li L and Lau B H S, In Vitro Cell Dev. Biol. 29A:531-536 (1993). The MTT assay has been established as useful for measuring either growth inhibition or population killing. Plowman, supra. The MTT method is ideal for cells tested in suspension growth, and can also be used for some cells growing in monolayers. […] Alley, supra; Hofs, supra; Wilson J K et al., Br. J. Cancer 62:189-94 (1990); Plowman, supra.
# (§2) Thirty μl of 0.5% MTT in phosphate buffered saline was added to each microculture well at the appropriate time. After incubation at 37° C. for 3 hr, 120 μl of an aqueous solution of 10 % SDS with 0.01 N HCl was added to release and dissolve formazan product. This was accomplished by overnight incubation of the plate at 37° C. After careful mixing of the microwell contents by placing the plates on an orbital shaker for 5 minutes the absorbencies were quantitated by spectrophotometry at 570 nm with a Ceres UV 900 HDI microwell plate reader (from Biotek Instruments Inc, Winooski, Vt. 05404-0998). Absorbance data was normalized to a blank well containing all reagents without cells and was collected semi-automatically.
# (§3) Flat-bottom 96-well plates of tissue culture quality (Corning or Costar) were set up with two-fold serial dilutions of each agent to be tested, e.g., the RA and TCI, using a multichannel pipettor with adjustable volume, e.g., Costar or Rainin, to perform serial mixing. This set-up is diagrammed in FIG. 12. […] In each plate, a total of 59 wells then contained bivariate agent combinations, the bivariate serial dilutions.
# [1] = system: human malignant lymphoma cells (U937); experiment: Tumorigenic assay in athymic nude mice; format: in vivo; conditions: U937 cells treated with dThd 0.2 mM for 4 hr followed by STSP 25 nM for 7 hr before subcutaneous inoculation; 14 days
# From the text: The biologic behavior of xenografts of human malignant cells in immunosuppressed mice can approximate natural growth conditions in a patient, since the cells receive a local supply of plasma nutrients and can survive for several weeks. Thus, inoculated cells may survive in a latent state prior to growth, a condition not readily duplicated in vitro. Inoculum size is critical for observation of tumor growth within a practical time frame. […] After treatment, cells were sedimented and resuspended in serum-free RPMI 1640. In each group four athymic Nu/Nu weanling mice of mean weight 17 gm were inoculated subcutaneously into both subscapular regions with 0.1 ml of RPMI 1640 containing 10^7 cells (viability>90%). Formation of tumors in these subcutaneous sites was observed during the next 14 days. One control mouse died prematurely. At 14 days, all animals were sacrificed, tumors were photographed, tumors were carefully dissected, and tumor weights were recorded. Tumors were verified histologically.
# U937 cells [2] = experiment: Pilot test of enhancement of gamma radiation damage; format: cell-based, human; conditions: STSP as RA, approximately 25 nM, pilot data
# From the text: Serial two-fold changes in calibrated radioactive dosages are combined with two-fold serial dilutions of an agent being tested as an RA or a TCI.
# pRb = experiment: Immunoblot of pRb phosphorylation status; format: cell-based, human
# Procedure: Whole cell extracts (U937 cells) were prepared in an SDS 2×sample buffer (100 mM Tris.HCl (pH 6.8), 200 mM DTT and 4% sodium dodecyl sulfate) and boiled for 5 minutes. Protein concentrations were assayed, and samples of 100 μg of protein per lane were applied to 7.5% SDS-polyacrylamide gels (PAGE). Resolved proteins were transferred to Immobilon P (Millipore), and pRb was localized with monoclonal anti-pRb (Santa Cruz, IF8) and a chemiluminescence procedure (Amersham ECL). Samples for flow cytometry were prepared and flow cytometry was performed as described in Example 2.
# [3] = system: p34^cdc2, c-myc, JNK, Erk-2; experiment: Immunoblot and kinase activity assays (CDC2, c-myc, MAP kinases); format: cell-based, human; conditions: U937, STSP ±dThd or dThd alone
# From the text: The cyclin-dependent kinase p34^cdc2 was detected with antibody clone #1 from Signal Transduction Laboratories. For detection of histone phosphorylation activity p34^cdc2 was immunoprecipitated with monoclonal antibody (Santa Cruz, #17) using protein A sepharose and reacted with H1 substrate (Boehringer Mannheim) in the presence of γ^32P-ATP Aersham). […] MAP kinases were detected by immnunoblotting with monoclonal antibodies from Pharmingen (San Diego, Calif.). For assay of enzymatic activities, MAP kinases were immunoprecipitated as above with polyclonal antibody to erk2 or with a GST-JNK substrate for JNK. The substrate for erk2 was myelin basic protein substrate and for JNK was GST-JNK (Pharmingen). The protooncogene product c-myc was detected by immunoblotting with an antibody from Oncogene Sciences.
# [4] = system: Burkitt's lymphoma cell line Raji; experiment: MIS MTT growth inhibition assay; format: cell-based, human; conditions: Raji cells (Tk deficient)
# U937 cells [5] = experiment: MIS LDH release assay (CytoTox96); format: cell-based, human; conditions: STSP for 14 H, total 18 H, STSP nM: 100,50,25,13,6,3, r16 dThd alone
# Procedure: The MIS set up was identical to that described in Example 8. The relative activity of LDH released into supernatant from each microculture well was detected by a coupled enzymatic assay, Decker et al., J. Immunol. Methods 15:61 (1988), in which the chromogen 2-(p-iodophenyl)-3-(p-nitrophenyl)-5-phenyl tetrazolium chloride (INT) is converted to a red INT-formazan product by NADH in the presence of diaphorase.
# In this procedure, after incubation and at the time for assay, 50 μl of fresh medium was added to each microculture well prior to assay and microcultures in the entire 96 well plate were simultaneously sedimented at 400×G for 10 min in a Becton Dickinson refrigerated table top centrifuge using a plate carrier. A 50 μl sample from each microwell then was removed carefully and transferred to a corresponding well in a clean 96 well plate. LDH activity was quantitated by means of the CytoTox96 assay, Promega Corp., Madison, Wis. 53711, according to the manufacturers instructions. In tests to determine the total LDH in each microwell, 10 μl of lysing reagent (from the CytoTox96 assay kit) was added to the fixed 100 μl volume with cells and medium prior to the above step. […].
# These formulas use […] in which positive numbers are obtained as compared to % inhibition used above. […] Particularly for the latter purpose, all of the cells in each microculture well were totally lysed with Promega lysing reagent prior to the calorimetric measurement.
# HL-60 cells = experiment: MIS MTT growth inhibition assay; format: cell-based, human
# From the text: as §1, §2, §3
# [6] = Homo sapiens, 4 h, read-out: MTT % inhibition, Aph only
# [7] = Homo sapiens, HL-60, 2 h, dThd […] 2 H, STSP 0, read-out: MTT % inhibition, dThd only
smiles,measurement,setting,value
"C[C@@]1(CO)[C@H](O)CC[C@@]2(C)[C@H]1CC[C@H]1C[C@@H]3C[C@@]12CC[C@]3(O)CO [Aph, aphidicolin]","combined results ratio, Aph only (baseline line)","Daudi cells; Aph alone, every Aph concentration 8.00-0.02 ug/ml",1.0
same,inhibition at 0.02 µg/mL,Daudi cells; [6],0%
same,inhibition at 0.03 µg/mL,Daudi cells; [6],1%
same,inhibition at 0.06 µg/mL,Daudi cells; [6],4%
same,inhibition at 0.5 µg/mL,Daudi cells; [6],8%
same,inhibition at 1 µg/mL,Daudi cells; [6],8%
same,inhibition at 2 µg/mL,Daudi cells; [6],9%
same,inhibition at 4 µg/mL,Daudi cells; [6],16%
same,inhibition at 8 µg/mL,Daudi cells; [6],28%
"CN[C@@H]1C[C@H]2O[C@@](C)([C@@H]1OC)n1c3ccccc3c3c4c(c5c6ccccc6n2c5c31)C(=O)NC4 [STSP, staurosporine]",Tumor formation,[1],developed no tumors
same,Effect on gamma radiation damage,U937 cells [2],an enhancing effect upon damage produced by a single exposure of the U937 cells to 2.5 to 10 Gy of gamma radiation
"Cc1cn([C@H]2C[C@H](O)[C@@H](CO)O2)c(=O)[nH]c1=O [dThd, deoxythymidine]",pRb phosphorylation,pRb; 0.2 mM dThd,did not appear to be grossly inhibited
same,pRb phosphorylation,"pRb; 3 mM dThd, 4 or 11 hours",pRb phosphorylation was inhibited
same,Phosphorylation of CDC2,[3],not by dThd alone
same,"IC40, growth inhibition",[4],> 4 mM
same,"LDH release multiple, dThd 0.02 mM",U937 cells [5]; dThd 0.02 mM for 4 H,1.20
same,"LDH release multiple, dThd 0.06 mM",U937 cells [5]; dThd 0.06 mM for 4 H,1.14
same,"LDH release multiple, dThd 0.09 mM",U937 cells [5]; dThd 0.09 mM for 4 H,1.19
same,"LDH release multiple, dThd 3.0 mM",U937 cells [5]; dThd 3.0 mM for 4 H,3.61
same,inhibition at 10 µM,"HL-60 cells; Homo sapiens, HL-60, 2 h, dThd 0.01 mM 2 H, STSP 0, read-out: MTT % inhibition, dThd only",2%
same,inhibition at 10 µM,"HL-60 cells; Homo sapiens, HL-60, 2 h, dThd 0.01 mM (column 8, lowest) 2 H, STSP 0, read-out: MTT % inhibition, dThd only",5%
same,inhibition at 20 µM,"HL-60 cells; Homo sapiens, HL-60, 2 h, dThd 0.02 mM 2 H, STSP 0, read-out: MTT % inhibition, dThd only",7%
same,inhibition at 50 µM,"HL-60 cells; Homo sapiens, HL-60, 2 h, dThd 0.05 mM 2 H, STSP 0, read-out: MTT % inhibition, dThd only",10%
same,inhibition at 90 µM,"HL-60 cells; Homo sapiens, HL-60, 2 h, dThd 0.09 mM 2 H, STSP 0, read-out: MTT % inhibition, dThd only",13%
same,inhibition at 3000 µM,"HL-60 cells; Homo sapiens, HL-60, 2 h, dThd 3.00 mM 2 H, STSP 0, read-out: MTT % inhibition, dThd only",59%
same,inhibition at 190 µM,HL-60 cells; [7],20%
same,inhibition at 380 µM,HL-60 cells; [7],28%
same,inhibition at 750 µM,HL-60 cells; [7],40%
same,inhibition at 1500 µM,HL-60 cells; [7],49%
same,"combined results ratio, dThd only (baseline line)","HL-60 cells; dThd alone, dThd 3.00-0.09 mM",1.0
